According to patent US20260318831A1 (University of Cincinnati, priority 2023, published 2026):

Columns and labels:
Format in all cases: cell-based
HeLa cells [1] = assay: Confocal imaging of PyQPMe uptake by endocytosis; settings: chloroquine 25 μM, 30 min; NH4Cl 50 mM
Method: In some aspects, the probes of the present disclosure can be administered to living cells, either in vitro or in vivo. To take advantage of the absorption and emission spectra of PyQPMe, this probe was administered in high-resolution microscopy for living cells. The toxicity of PyQPMe was examined at first before characterizing its imaging properties. Cell Counting Kit-8 (CCK-8) was used to investigate the viability of HeLa cells stained with PyQPMe. […] Next, PyQPMe was characterized by Leica Stellaris Confocal Microscope in the LIGHTNING module for high-resolution imaging. […] The signal tended to be endolysosomes because endolysosomes have a low pH range from 4.7 to 6.3. […] Since low temperatures can inhibit endocytosis, experiments at a lower temperature were performed.
(§1) Leica Stellaris 8 Confocal imaging. High-resolution images were acquired on a commercial Leica Stellaris 8 Confocal Microscope under LIGHTNING mode. Laser powers were set at 10% intensity for 405 nm and 640 nm channels. The objective was 63×/1.4. High-resolution images were captured from the randomly selected field of view and analyzed with Leica LAS X and ImageJ software. All the images were exported on the Auto scale of the Leica LAS X software. Cells were seeded on glassed-bottomed cell dishes (MatTek) for 24 hours. Cells stained with PyQPMe (20 nM, 10 min) were treated with Wortmannin (1 μM, 24 h), CCCP ([…], 24 h), rapamycin (0.5 μM, 24 h), chloroquine (25 μM, 30 min), and NH4Cl (50 mM, 30 min). All PCC values were analyzed in the CellProfiler.

[2] = test system: endolysosomes in HeLa cells; assay: Dynamics of PyQPMe-stained endolysosomes (puncta counting); settings: wortmannin 1 μM, 24 h
Method: FIGS. 5A-5H depict the characterization of dynamics of PyQPMe-stained endolysosomes. FIG. 5A. Confocal images of HeLa cells stained with PyQPMe following treatment with or without Wortmannin for 24 h. FIG. 5B. Schematic illustration of the effect of Wortmannin which inhibits the conversion from early endosomes into late endosomes. FIG. 5C. Quantification of total endolysosomes and late endosomes/lysosomes in PyQPMe-stained HeLa cells with or without Wortmannin treatment. FIG. 5D. The ratio of the number of late endosomes/lysosomes to total endolysosomes in PyQPMe-stained HeLa cells treated with or without Wortmannin. FIG. 5E. Confocal images of HeLa cells stained with PyQPMe for 10 min and 60 min. FIG. 5F. The mean red puncta fluorescence intensity of PyQPMe-stained HeLa cells for 10 min and 60 min incubation. FIG. 5G. Quantification of total endolysosomes and late endosomes/lysosomes in PyQPMe-stained HeLa cells for 10 min and 60 min. FIG. 5H. The ratio of the number of late endosomes/lysosomes to total endolysosomes in PyQPMe-stained HeLa cells for 10 min and 60 min. Data are given as M±SEM (n=10 independent samples from 10 cells for each statistical analysis); the statistical differences were analyzed by Student's t-test, p<0.05 is considered to statistical significant (** p≤0.01; *** p≤0.001; **** p≤0.0001; ns p>0.05).
Because of the popularity of quantitative cell biology, it is important to design powerful tools that can digitize individual cells and subcellular organelles to elucidate biological problems in detail. With its great pH response, long-term photostability, and excellent signal-to-noise ratio for high-resolution imaging, PyQPMe was successfully used to track the dynamics of endolysosomes within cells by counting the number of puncta fluorescence signals in both green and red channels (FIG. 5A).
Next, the effects of different incubation time on the endocytic pathway were tested.
as §1

HeLa cells [3] = assay: Photobleaching comparison of LTR and PyQPMe; settings: continuous confocal laser at 100% power
Text: FIGS. 4A-4G depict the characterization of imaging properties of PyQPMe-stained endolysosomes. FIG. 4A. Confocal image of PyQPMe-stained endolysosomes and fluorescence intensity profile (FIG. 4B) of the write line in FIG. 4A. FIG. 4C. Confocal image of PyQPMe-stained late endosomes/lysosomes and fluorescence intensity profile (FIG. 4D) of the write line in FIG. 4C. FIG. 4E. Confocal images of HeLa cells labeled with LTR and PyQPMe and 3D fluorescence intensity plots of rectangles of integration. FIG. 4F. Continuous imaging of HeLa cells labeled with LTR or PyQPMe at 100% laser intensity for photobleaching, and each scan time was 10 s, images were captured under a red channel. FIG. 4G. Normalized fluorescence intensity of LTR and PyQPMe in FIG. 4F.
Resistance to photobleaching is a crucial property of probes that determines whether they can be used for long-term fluorescence tracking. To characterize this property, a photobleaching comparison study between LTR and PyQPMe was done in HeLa cells (FIG. 4F).
Leica Stellaris 8 Confocal imaging. High-resolution images were acquired on a commercial Leica Stellaris 8 Confocal Microscope under LIGHTNING mode. Laser powers were set at 10% intensity for 405 nm and 640 nm channels. […] High-resolution images were captured from the randomly selected field of view and analyzed with Leica LAS X and ImageJ software. […] All PCC values were analyzed in the CellProfiler.

[4] = test system: endolysosomes in HeLa cells; assay: Dynamics of PyQPMe-stained endolysosomes during autophagy
Method: FIGS. 6A-6H depict the dynamics of PyQPMe-stained endolysosomes during autophagy. FIG. 6A. Confocal images of HeLa cells incubated with PyQPMe following treatment with or without CCCP for 24 h. FIG. 6B. Quantification of total endolysosomes and late endosomes/lysosomes in PyQPMe-stained HeLa cells with or without CCCP treatment. FIG. 6C. The ratio of the number of late endosomes/lysosomes to total endolysosomes in PyQPMe-stained HeLa cells treated with or without CCCP. FIG. 6D. Quantification of ratio of red to green intensity in PyQPMe-stained HeLa cells without CCCP treatment. FIG. 6E. Quantification of ratio of red to green intensity in PyQPMe-stained HeLa cells with CCCP treatment for 24 h. FIG. 6F. Confocal images of HeLa cells incubated with PyQPMe following treatment with or without rapamycin for 24 h. FIG. 6G. Quantification of total endolysosomes and late endosomes/lysosomes in PyQPMe-stained HeLa cells with or without rapamycin treatment. FIG. 6H. The ratio of the number of late endosomes/lysosomes to total endolysosomes in PyQPMe-stained HeLa cells treated with or without rapamycin. Data are given as M±SEM (n=10 independent samples from 10 cells for each statistical analysis); the statistical differences were analyzed by Student's t-test, p<0.05 is considered to statistical significant (**** p≤0.0001; ns p>0.05).
Autophagy is a natural degradation process of cells that removes unnecessary or damaged biological macromolecules or organelles to maintain homeostasis. After autophagosomes engulf unnecessary components, both late endosomes and lysosomes can fuse with autophagosomes to degrade autophagosomal cargo by forming amphisomes and autolysosomes, respectively. To study the behavior of endolysosomes during autophagy, carbonyl [COMPOUND LEFT OUT] m-chlorophenyl hydrazone (CCCP), a common inducer for mitophagy (one type of autophagy), was exploited to induce autophagy in PyQPMe-stained cells. Cells were treated with 10 μM CCCP for 24 h prior to PyQPMe staining. […] As mentioned above (FIG. 2C), pH 5-6 is the cut-off point for the red to green fluorescence intensity ratio of PyQPMe, which perfectly matches the pH changes during conversion from early endosomes to late endosomes. […] Inversely, when the ratio is greater than 1, it represents the population of late endosomes/lysosomes (FIGS. 3D, 6D, 6E).
Rapamycin, a classical autophagy inducer, activates autophagy by inhibiting mTOR protein activation. To investigate the effect of rapamycin on endolysosomes, we treated HeLa cells with 0.5 μM rapamycin for 24 h prior to PyQPMe staining. […] To track the dynamics of endolysosomes in classical autophagy, the total endolysosomes and late endosomes/lysosomes in rapamycin-treated cells were quantified. […] Meanwhile, similar to the CCCP-induced mitophagy (FIGS. 6A, 6C), the proportion of late endosomes/lysosomes to total endolysosomes remained the same (~54%) during classical autophagy process (FIG. 6H).
as §1

CCN(CC)CCCC(C)Nc1ccnc2cc(Cl)ccc12 (stereo not drawn) [chloroquine, reference compound]
effect of endocytic inhibitor on PyQPMe fluorescence (HeLa cells [1]): significant reduction in fluorescence

Cl.N [NH4Cl, reference compound]
effect of endocytic inhibitor on PyQPMe fluorescence (HeLa cells [1]): significant reduction in fluorescence

COC[C@H]1OC(=O)c2coc3c2[C@@]1(C)C1=C(C3=O)[C@@H]2CCC(=O)[C@@]2(C)C[C@H]1OC(C)=O [wortmannin, reference compound]
number of endolysosomes vs untreated cells [2]: much higher than that in untreated cells | percentage of late endosomes/lysosomes in total endolysosomes vs untreated [2]: significantly decreased

CN(C)CCNC(=O)CCc1ccc2n1[B-](F)(F)[N+]1=C(c3ccc[nH]3)C=CC1=C2 [LTR, reference compound]
fluorescence intensity on photobleaching (HeLa cells [3]): disappeared rapidly after two scans

CO[C@H]1C[C@@H]2CC[C@@H](C)[C@@](O)(O2)C(=O)C(=O)N2CCCC[C@H]2C(=O)O[C@H]([C@H](C)C[C@@H]2CC[C@@H](O)[C@H](OC)C2)CC(=O)[C@H](C)/C=C(\C)[C@@H](O)[C@@H](OC)C(=O)[C@H](C)C[C@H](C)/C=C/C=C/C=C/1C [rapamycin]
fluorescent spots in both green and red channels ([4]; rapamycin 0.5 μM, 24 h): more fluorescent spots | number of total endolysosomes and late endosomes/lysosomes ([4]; rapamycin 0.5 μM, 24 h): significantly increased | proportion of late endosomes/lysosomes to total endolysosomes ([4]; rapamycin 0.5 μM, 24 h (FIG. 6H)): ~ 54%

N#CC(C#N)=NNc1cccc(Cl)c1 [CCCP]
number of total endolysosomes and late endosomes/lysosomes vs controls ([4]; CCCP 10 μM, 24 h (mitophagy)): significant increase | ratio of late endosomes/lysosomes to total endolysosomes ([4]; CCCP 10 μM, 24 h, by counting (FIG. 6C)): ~ 55% | ratio of late endosomes/lysosomes to total endolysosomes from red to green intensity ([4]; CCCP 24 h (FIG. 6E), 52% without CCCP (FIG. 6D)): 56% | acidity of early and late endosomes ([4]; CCCP, distribution of red to green intensity ratio): both early and late endosomes became more acidic
